According to publication PMC7661967, “Magnetic Resonance Molecular Imaging of Extradomain B Fibronectin Improves Imaging of Pancreatic Cancer Tumor Xenografts” (Frontiers in Oncology, 2020):
“Also recorded” adds a separate entry of the source. Each block holds one molecule with its values, some of them ahead of it. No end group written: not given here.

Key:
[1] = system: EDB-FN; experiment: ZD2-Cy5.5 staining of human pancreatic tissue; format: binding; conditions: 500 nM, 1 h, 37°C, confocal
Procedure: Tissue sections from PaCa patients (Case Comprehensive Cancer Center, Cleveland, OH) were deparaffinized with xylene, ethanol, and washed with water. Blocking was performed with 10% goat serum (Invitrogen, Carlsbad, CA) in PBS with 0.1% Tween 20 (PBS-T) for 30 min and incubated with 500 nM ZD2-Cy5.5 in PBS-T for 1 h at 37°C. Following three washes with PBS-T, the sections were mounted using Fluoroshield mounting medium (Abcam, Cambridge, UK). Images were acquired on a FV1000 (Olympus, Waltham, MA) confocal microscope using pre-programmed emission and excitation filters for Cy5.5 (excitation: 635 nm; emission: 693 nm) and DAPI (excitation: 405 nm; emission: 461 nm), using a 10 × objective lens. All tissue samples were imaged at the same laser power and sensor gain. Images were generated from single-channel grayscale images using FIJI software.

[2] = system: EDB-FN; experiment: Fluorescence staining of frozen mouse tumor xenograft and normal tissue sections; format: binding, human PaCa xenografts in nu/nu mice; conditions: for staining: ZD2-Cy5.5 500 nM, room temperature 2.5 h, BC-1 1:400, 4°C overnight
Procedure: For assessment of binding specificity of ZD2 peptide, flash frozen samples of tumor and normal tissues were collected from the euthanized tumor bearing mice and embedded in optimal cutting temperature media. The embedded samples were then immersed in liquid nitrogen for 5 min and transferred to −80°C for storage before cryosectioning. Tissue sections were blocked for 1 h in PBS containing 0.05% Tween-20 and 10% normal goat serum (Gibco, Gaithersburg, MD) and then stained with BC-1 primary monoclonal antibody (1:400) or ZD2-Cy5.5 (500 nM) at 4°C overnight or room temperature incubation for 2.5 h, respectively, and then washed with PBS-T buffer. Secondary Alexa Fluor 594 anti-rabbit was incubated with the BC-1 treated sections for 1 h at room temperature (1:1,000). For the blocking experiment, the tissue sections were first incubated with an excess of BC1 antibody at 4°C overnight, then washed three times with PBS-T. The sections were then incubated with ZD2-Cy5.5 at room temperature incubation for 2.5 h. The stained sections were washed with PBS-T buffer and images were acquired on an Olympus FV1000 (Waltham, MA) confocal microscope using pre-programmed emission and excitation filters for Cy5.5 (excitation: 635 nm; emission: 693 nm) and DAPI (excitation: 405 nm; emission: 461 nm), using a 10 × objective lens.

[3] = system: EDB-FN in PaCa; conditions: PET; cited from earlier work
Source text: Molecular imaging of EDB-FN in cancer has been previously investigated with antibodies labeled with radioisotopes for PET imaging. Anti-EDN-FN antibody BC-1 was labeled with ^125I and tested in mice bearing U87 brain tumor and SKMel28 melanoma xenografts ([29]). […] Nanobodies with a smaller size were recently developed for molecular imaging of E ...

[4] = system: BxPC3-GFP-Luc intrapancreatic tumor xenografts; experiment: MRMI of BxPC3-GFP-Luc intrapancreatic tumor xenografts (3T); format: in vivo, human cells in female nu/nu mice
Procedure: (§1) For flank xenograft models, 4 × 10^6 Capan-1 cells suspended in 100 μL of a 6 mg/mL Matrigel (Corning, Corning, NY) solution was injected subcutaneously into the flank of 8-week-old female nu/nu mice. The tumor bearing mice were imaged after tumor volumes exceeded 300 mm^3. For orthotopic intrapancreatic models, the pancreas of 4-week-old female nu/nu mice were surgically exposed via a ~10 mm incision in the left ventral abdomen and the application of gentle pressure to express the spleen and associated pancreatic tissue. 1 × 10^6 BxPC3-GFP-Luc or PANC-1-GFP-Luc cells suspended in 100 μL of a Matrigel solution (6 mg/mL) was injected into the pancreatic tissue using an insulin syringe with a 31G needle. Any leakage of cell suspension was lavaged with DPBS twice to prevent intraabdominal seeding PaCa cells. The peritoneal fascia was closed with absorbable stitches, and the dermis closed with stainless steel wound clips. Prior to imaging, growth of tumor was verified by bioluminescence imaging with intraperitoneal injection of d-luciferin on IVIS Spectrum system (Perkin Elmer, Waltham, MA).
(§2) Mice bearing intrapancreatic tumors were anesthetized and a tail vein catheter was inserted. Image acquisition was performed on a MR Solutions 3T MRS 3000 scanner with a mouse radiofrequency coil. Axial images were obtained using a Fast Spin Echo (FSE) MRI sequence (305 ms TR, 11 ms TE, 90° FA, 4 cm × 4 cm FOV, 1 mm slice thickness, 10 slices, echo train length = 4, echo spacing = 11 ms, 4 averages, 256 × 256 matrix, 0.0156 × […] cm/pixel resolution) with respiratory gating. Images were acquired before contrast and at different time points after contrast injection at a dose of 0.1 mmol/kg (100 μL). For competitive binding experiments, a 5:1 molar ratio of free ZD2 peptide to MT218 was injected in mice bearing intrapancreatic BxPC3 tumor xenografts (n = 3) at a dose of 0.1 mmol MT218/kg (100 μL). Images obtained on the MR Solutions 3T scanner were normalized using the Surscalereader.exe (MR Solutions, Guildford, UK) program supplied.
(§3) Image files were exported and analyzed in Horus software. ROIs were drawn in the tumor, liver, kidney, and muscle. Muscle ROIs were taken from the muscle, with other structures (liver, kidney, tumor) identified after comparison with published images and comparison with anatomical landmarks or bioluminescent imaging. Pancreatic lesions were localized using the liver, kidney, and spleen as anatomical landmarks. […] Size of ROIs drawn for image analysis are summarized in Supplementary Table 1. The contrast-to-noise ratio of the tumor (CNR) was calculated using the following equation, where σnoise is the standard deviation of intensities from an ROI drawn outside of the mouse body:
(§4) CNR=Mean IntensityTumor-Mean IntensityMuscle/σnoise.
(§5) Image subtraction was performed on images adjusted to the same window and level in FIJI open-source software.
(§6) Image contrast was reported as fold enhancement of contrast to noise ratio of post-contrast images over pre-contrast images using Fold Enhancement = CNRpost/CNRpre. Statistical analysis of CNR was performed in Minitab Express (Minitab Inc., State College, PA). One-way ANOVA with Fisher Individual Tests for Differences of Means post-hoc testing was performed to determine statistical significance between >2 means (p < 0.05). Student's T test was used to determine statistical significance between 2 means (p < 0.05).

[5] = system: EDB-FN; conditions: cited from earlier work
Procedure: ZD2 targeted MRI contrast agents have been developed and tested for MRMI of EDB-FN in aggressive breast cancer and prostate cancer models ([15], [16], [20]). The targeted contrast agent ZD2-N3-Gd(HP-DO3A) (MT218) was developed by conjugating ZD2 peptide to a clinical macrocyclic contrast agent Gd(HP-DO3A) ([16], [20]). […] MT218 is a small molecular conjugate of ZD2 peptide to a macrocyclic clinical MRI contrast agent Gd(HP-DO3A). The binding affinity of MT218 to EDB-FN was measured to be 3.2 ± 0.2 μM, which is similar to that of a previously targeted contrast agent ZD2-Gd(HP-DO3A) ([23]). The T1 and T2 relaxivities of MT218 were measured to be 6.07 ± 1.13 s^−1 mM^−1 and 8.20 ± 0.18 s^−1 mM^−1, respectively, at 3 T. T1 and T2 relaxivities of Gd(HP-DO3A) were measured to be 3.20 ± 0.96 s^−1 mM^−1 and 5. ...

[6] = T1 and T2 relaxivity measurement at 3T; format: physicochemical; conditions: 0-2 mM MT218 in DPBS buffer
Procedure: The T1 and T2 values of MT218 and Gd(HP-DO3A) solutions were determined using a 3T MRS 3000 scanner (MR Solutions, Guildford, UK). Solutions of MT218 were prepared at concentrations of 0, 0.25, 0.5, 1, and 2 mM in DPBS buffer (Gibco, Gaithersburg, MD). T1 values were measured using an inversion recovery-fast low angle shot (IR-FLASH) sequence (τ = 10 ms, TE = 4 ms, FA = 8°, echoes/frames = 128, FOV = 40 mm × 40 mm, slice thickness = 2 mm, number of averages = 1, time delay = 4,000 ms, sample period = 200, matrix = 256 × 128). T2 values were obtained using a multi-echo multi-slice (MEMS) sequence (TE = 15 ms, […], echoes = 10, FOV: 40 mm × 40 mm, slice thickness = 1 mm, number of averages = 1, matrix = 256 × 192). The r1 and r2 relaxivities were calculated from the slopes of 1/T1 and 1/T2 vs. Gd concentration plots, respectively.

[7] = system: Capan-1 flank tumor xenografts; experiment: MRMI of Capan-1 flank tumor xenografts (7T); format: in vivo, human cells in female nu/nu mice; conditions: 0.1 mmol/kg
Procedure: as §1
Flank tumor-bearing mice were anesthetized and a tail vein catheter inserted. MR image acquisition was performed on a 7T Biospin (Bruker, Billerica, MA) preclinical small animal scanner with a volume radiofrequency coil. Axial images were obtained using a multi-spin multi-echo (MSME) MRI sequence (500 ms TR, 8.1 ms TE, 90° FA, 4.50 cm × 4.50 cm FOV, 1.50 mm slice thickness, 16 slices, 2 averages, 200 × 200 matrix, 0.0225 × 0.0225 cm/pixel resolution). Contrast agents were injected at a dose of 0.1 mmol/kg (100 μL) via the tail vein catheter, followed by a saline flush. Images of the tumors were acquired before contrast and at various time points after contrast administration. Gd(HP-DO3A) was used as a control.
as §3, §4, §5, §6

[8] = system: PANC-1-GFP-Luc intrapancreatic tumor xenografts; experiment: MRMI of PANC-1-GFP-Luc intrapancreatic tumor xenografts (3T); format: in vivo, human cells in female nu/nu mice; conditions: 0.1 mmol/kg, 10 min post-injection, n = 6
Procedure: as §1, §2, §3, §4, §5, §6

[9] = target: extradomain B fibronectin in human PaCa tumor xenografts in mice (human (endogenous in BxPC3, Capan-1 and PANC-1 xenografts))
[10] = target: extradomain B fibronectin in human PaCa tumor xenografts in mice (human (endogenous in BxPC3, Capan-1 and PANC-1 xenografts)); remark: listed apart in the source
[11] = target: EDB fragment of FN; experiment: MST; NT-647-labelled EDB fragment at a fixed concentration, MT218 varied; 50 mM PBS w/0.05% Tween-20; 25°C; Monolith NT.115
[12] = 0.1 mmol/kg, 10 min post-injection, n = 3

ZD2-Cy5.5 binding / EDB-FN expression ([1]; human PaCa tissue): high EDB-FN expression and high
ZD2-Cy5.5 binding / EDB-FN expression ([1]; normal pancreatic tissue): little expression and low
ZD2-Cy5.5 binding / EDB-FN expression ([1]; precancerous PanIN tissue): moderate expression
Molecule: ZD2-Cy5.5: peptide-fluorophore conjugate (TVRTSAD; also: Cy5.5 conjugate, end of attachment not given here)
staining ([2]; BxPC3, Capan-1 and PANC-1 tumor tissues): high in all three tumor tissues
ZD2-Cy5.5 binding after blocking ([2]; flash frozen tumor tissues pre-incubated with excess BC-1 antibody, 4°C overnight, then ZD2-Cy5.5): No fluorescent signal; also recorded: blocked
staining ([2]; normal pancreatic and muscle tissues): undetectable; also recorded: No staining

Molecule: ZD2-((68)Ga-NOTA) [ZD2 peptide labeled with ^68Ga]
molecular imaging of EDB-FN in PaCa [3]: sensitive and specific molecular imaging of EDB-FN in PaCa

Molecule: TVRTSAD [ZD2]
effect of free ZD2 peptide on binding of MT218 ([4]; 5:1 molar ratio free ZD2 peptide to MT218, co-injection, n = 3): blocked the binding of the MT218 to the tumors; also recorded: inhibited the binding of MT218
binding to EDB-FN (specificity) [5]: binds with high specificity to EDB-FN

Molecule: CC(O)CN1CCN(CC(=O)[O-])CCN(CC(=O)[O-])CCN(CC(=O)[O-])CC1.[Gd+3] (stereo not shown) [Gd(HP-DO3A), reference compound]
T1 relaxivity (r1) ([6]; IR-FLASH): 3.20 ± 0.96 s⁻¹ mM⁻¹
T2 relaxivity (r2) ([6]; MEMS): 5.12 ± 0.18 s⁻¹ mM⁻¹
contrast enhancement in tumor core ([7]; after injection): did not exhibit significant tumor core enhancement
enhancement in tumor periphery, subtraction images ([7]; early time points (5–15 min post-contrast)): modest peripheral contrast enhancement
intratumoral CNR increase (post/pre) ([7]; for the duration of the experiment, n = 5): 1.77 fold
contrast enhancement throughout tumors, subtraction images ([7]; later time points (25–35 min) for MT218, all time points for Gd(HP-DO3A)): little to no intratumoral contrast
intratumoral CNR increase compared with MT218 ([7]; p < 0.01): significantly less than MT218
tumor CNR increase compared with MT218 ([4]; 0.1 mmol/kg, 10 min, p < 0.01): significantly less than that with MT218
tumor CNR increase (post/pre) ([4]; 0.1 mmol/kg, 10 min post-injection (maximum for MT218), n = 3): approximately 2.5 fold
tumor contrast enhancement [4, 12]: modest contrast enhancement
tumor enhancement, subtraction images [4, 12]: less intratumoral signal enhancement
tumor contrast enhancement ([4]; 0.1 mmol/kg, 20 min post-injection, n = 3): reduced to background level
intratumoral CNR increase (post/pre) [8]: 2.35 fold
tumor contrast enhancement [8]: did not produce significant tumor contrast enhancement
tumor signal enhancement, subtraction images [8]: little change

tumor CNR fold increase, T1-weighted MRI, Capan-1 flank xenografts, MT218 0.1 mmol/kg, time course 5-35 min post-injection (maximum at 15 min) [9]: 4.8 fold
tumor CNR fold increase, T1-weighted MRI, BxPC3-GFP-Luc intrapancreatic model, MT218 0.1 mmol/kg without the free ZD2 peptide [10]: 4.5 fold
tumor contrast-to-noise ratio (CNR) fold increase, T1-weighted MRI, BxPC3-GFP-Luc intrapancreatic model, MT218 0.1 mmol/kg co-injected with a 5-fold excess of free ZD2 peptide [10]: 2.5 fold
Kd [11]: 3.2 µM
B1: ZD2-N3-Gd(HP-DO3A) (peptide)
peptide: TVRTSAD
modifications: also: conjugated to Gd(HP-DO3A) via N3, end of attachment not given here
